Results reported in article PMC4861903, “Synthesis of a highly water-soluble acacetin prodrug for treating experimental atrial fibrillation in beagle dogs” (Scientific Reports, 2016).
≈ marks a conversion by molar mass, not a printed value. Read-outs that look alike come from different tables or passages of the source.

What was measured:
[1] = Aqueous solubility by HPLC in H2O, 5% glucose and 0.9% NaCl; format: physicochemical
[2] = target: T1, hKv1.5 current (IKur, KCN5A) (Homo sapiens, UniProt P22460); assay: Whole-cell patch clamp of hKv1.5 current in HEK 293 cells; format: cell-based; conditions: 10 μM, at +50 mV, current at end of the voltage step, n = 5
T1 construct: expressed in transfected cells
Description: (§1) Whole-cell currents of hKv1.5 and hKv4.3 were recorded in established HEK 293 cell lines stably expressing hKv1.5 (KCN5A) and hKv4.3 (KCND3) and IKACh was determined in isolated rat atrial myocytes as described previously[12][31][32] and in Supplemental Materials. […]
(§2) Effects of acacetin prodrug on cardiac potassium currents
(§3) Whole-cell currents of hKv1.5 and hKv4.3 were recorded in established HEK 293 cell lines stably expressing hKv1.5 (KCN5A) and hKv4.3 (KCND3).1, 2 The cells were cultured in Dulbecco’s modified eagle’s medium (DMEM, Invitrogen, Hong Kong) supplemented with 10% fetal bovine serum and 400 µg/mL G418. Cells on a coverslip were transferred to an open cell chamber (0.5 ml) mounted on the stage of an inverted microscope and superfused with Tyrode’s solution at 2 mL/min. The whole cell patch-clamp technique was used as described previously.1, 2 The whole-cell membrane currents were measured using an EPC-10 amplifier and Pulse software (Heka Elektronik, Lambrecht, Germany). Borosilicate glass electrodes (1.2-mm OD) were pulled with a Brown/Flaming puller (model P-97, Sutter Instrument, Nato, CA) and had resistances of 1.5~2.5 MΩ when filled with the pipette solution. A 3-M KCl agar bridge was used as the reference electrode. The tip potential was zeroed before the patch pipette contacted the cell. […]

[3] = target: T2, hKv4.3 current (Ito, KCND3) (Homo sapiens, UniProt Q9UK17); assay: Whole-cell patch clamp of hKv4.3 current in HEK 293 cells; format: cell-based; conditions: 10 μM, at +50 mV, current peak, n = 5
T2 construct: expressed in transfected cells
T2 sequence (Q9UK17 1-655): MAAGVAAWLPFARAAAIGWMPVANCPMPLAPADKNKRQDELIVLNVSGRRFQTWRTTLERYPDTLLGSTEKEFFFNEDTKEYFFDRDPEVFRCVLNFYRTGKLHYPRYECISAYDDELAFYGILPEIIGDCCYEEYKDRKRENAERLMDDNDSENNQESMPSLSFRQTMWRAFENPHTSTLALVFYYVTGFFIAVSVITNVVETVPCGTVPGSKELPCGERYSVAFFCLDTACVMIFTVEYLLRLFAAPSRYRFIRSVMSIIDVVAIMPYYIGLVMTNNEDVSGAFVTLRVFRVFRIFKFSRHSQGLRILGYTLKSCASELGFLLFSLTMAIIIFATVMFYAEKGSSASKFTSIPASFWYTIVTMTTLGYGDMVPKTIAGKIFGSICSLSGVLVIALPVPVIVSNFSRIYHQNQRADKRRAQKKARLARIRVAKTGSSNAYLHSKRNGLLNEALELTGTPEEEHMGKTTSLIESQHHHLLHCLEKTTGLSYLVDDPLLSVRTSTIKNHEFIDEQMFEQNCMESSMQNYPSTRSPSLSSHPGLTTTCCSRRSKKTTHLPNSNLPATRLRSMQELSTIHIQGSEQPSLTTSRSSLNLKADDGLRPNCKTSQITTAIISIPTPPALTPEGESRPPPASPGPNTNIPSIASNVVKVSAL
Description: as §1, §2, §3

[4] = target: T3, IKACh (acetylcholine-activated K+ current) (Rattus norvegicus, UniProt P48548+P63251); assay: Whole-cell IKACh elicited by 5 μM carbachol in rat atrial myocytes; format: cell-based; conditions: 10 μM, at −100 mV, carbachol sensitive current, n = 5
T3 construct: endogenous in cells; host or cells: atrial myocytes dissociated from male Sprague-Dawley rats
T3 sequence (P63251 1-501): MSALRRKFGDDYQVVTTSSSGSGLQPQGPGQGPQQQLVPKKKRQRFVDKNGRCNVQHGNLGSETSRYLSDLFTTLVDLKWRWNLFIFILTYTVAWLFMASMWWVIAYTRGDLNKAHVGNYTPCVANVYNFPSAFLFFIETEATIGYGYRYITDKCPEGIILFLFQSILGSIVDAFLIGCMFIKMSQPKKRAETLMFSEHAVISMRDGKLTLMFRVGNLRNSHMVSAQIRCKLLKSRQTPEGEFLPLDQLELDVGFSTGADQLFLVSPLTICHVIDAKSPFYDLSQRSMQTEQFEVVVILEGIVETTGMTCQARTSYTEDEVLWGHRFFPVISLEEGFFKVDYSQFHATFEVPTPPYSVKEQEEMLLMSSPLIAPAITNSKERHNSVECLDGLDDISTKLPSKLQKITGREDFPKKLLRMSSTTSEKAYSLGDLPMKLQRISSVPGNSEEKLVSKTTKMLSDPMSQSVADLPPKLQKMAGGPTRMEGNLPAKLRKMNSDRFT
T3 sequence (P48548 1-419): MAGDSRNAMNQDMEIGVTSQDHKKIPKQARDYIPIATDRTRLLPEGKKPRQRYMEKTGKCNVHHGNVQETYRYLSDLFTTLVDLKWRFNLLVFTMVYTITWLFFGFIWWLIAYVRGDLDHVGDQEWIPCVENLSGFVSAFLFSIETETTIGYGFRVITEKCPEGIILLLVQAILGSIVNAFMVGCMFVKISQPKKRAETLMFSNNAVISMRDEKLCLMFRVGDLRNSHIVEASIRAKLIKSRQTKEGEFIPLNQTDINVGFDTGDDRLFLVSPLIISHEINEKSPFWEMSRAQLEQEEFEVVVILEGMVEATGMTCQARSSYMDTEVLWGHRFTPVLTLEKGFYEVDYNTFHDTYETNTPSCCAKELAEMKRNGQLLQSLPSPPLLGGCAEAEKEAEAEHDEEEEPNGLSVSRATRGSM
Description: as §1
Effects of acacetin prodrug on cardiac potassium currents […]
Cells on a coverslip were transferred to an open cell chamber (0.5 ml) mounted on the stage of an inverted microscope and superfused with Tyrode’s solution at 2 mL/min. The whole cell patch-clamp technique was used as described previously.1, 2 The whole-cell membrane currents were measured using an EPC-10 amplifier and Pulse software (Heka Elektronik, Lambrecht, Germany). Borosilicate glass electrodes (1.2-mm OD) were pulled with a Brown/Flaming puller (model P-97, Sutter Instrument, Nato, CA) and had resistances of 1.5~2.5 MΩ when filled with the pipette solution. A 3-M KCl agar bridge was used as the reference electrode. The tip potential was zeroed before the patch pipette contacted the cell. After a giga-Ohm seal was obtained, the cell membrane was ruptured by applying gentle pressure to establish a whole-cell configuration. […] The liquid junction potential (14.7 mV) calculated with the software Clampex was not corrected in the experiment and data […]
Whole-cell current of IKACh was determined in isolated rat atrial myocytes. […]

hERG channels = target: T4, hERG channels (Homo sapiens, UniProt Q12809); conditions: 30 μM; cited from earlier work
T4 construct: expressed in transfected cells; host or cells: HEK 293
T4 sequence (Q12809 whole entry): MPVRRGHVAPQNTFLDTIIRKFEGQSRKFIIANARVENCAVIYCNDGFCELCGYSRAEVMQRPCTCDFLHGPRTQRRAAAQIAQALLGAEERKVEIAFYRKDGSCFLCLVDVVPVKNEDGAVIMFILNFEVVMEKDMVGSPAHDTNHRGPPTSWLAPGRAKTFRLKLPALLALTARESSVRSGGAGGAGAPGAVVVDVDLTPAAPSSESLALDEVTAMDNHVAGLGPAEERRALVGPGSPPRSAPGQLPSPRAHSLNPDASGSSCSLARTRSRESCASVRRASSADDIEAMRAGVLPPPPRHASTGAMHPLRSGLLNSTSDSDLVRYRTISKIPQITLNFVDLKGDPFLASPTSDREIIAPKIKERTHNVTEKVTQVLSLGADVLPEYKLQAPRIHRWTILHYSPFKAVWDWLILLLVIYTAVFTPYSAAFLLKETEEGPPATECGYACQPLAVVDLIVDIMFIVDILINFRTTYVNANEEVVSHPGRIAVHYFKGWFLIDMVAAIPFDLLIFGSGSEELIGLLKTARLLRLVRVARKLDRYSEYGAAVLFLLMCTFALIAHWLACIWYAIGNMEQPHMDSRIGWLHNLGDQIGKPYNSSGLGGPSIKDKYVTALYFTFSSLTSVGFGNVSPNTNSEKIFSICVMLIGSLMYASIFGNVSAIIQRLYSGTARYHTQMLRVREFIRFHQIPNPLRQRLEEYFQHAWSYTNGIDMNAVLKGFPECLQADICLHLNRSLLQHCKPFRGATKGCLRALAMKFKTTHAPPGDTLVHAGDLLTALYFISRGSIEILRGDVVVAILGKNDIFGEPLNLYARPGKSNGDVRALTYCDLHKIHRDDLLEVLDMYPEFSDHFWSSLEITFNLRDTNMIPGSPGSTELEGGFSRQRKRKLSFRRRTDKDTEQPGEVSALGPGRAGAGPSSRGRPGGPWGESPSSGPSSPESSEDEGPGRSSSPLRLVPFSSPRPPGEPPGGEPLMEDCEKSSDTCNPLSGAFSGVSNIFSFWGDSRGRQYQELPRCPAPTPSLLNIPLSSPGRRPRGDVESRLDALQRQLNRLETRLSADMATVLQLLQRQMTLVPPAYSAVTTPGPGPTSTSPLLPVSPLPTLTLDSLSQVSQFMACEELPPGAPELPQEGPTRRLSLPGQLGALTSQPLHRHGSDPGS

T1 sequence (P22460 whole entry): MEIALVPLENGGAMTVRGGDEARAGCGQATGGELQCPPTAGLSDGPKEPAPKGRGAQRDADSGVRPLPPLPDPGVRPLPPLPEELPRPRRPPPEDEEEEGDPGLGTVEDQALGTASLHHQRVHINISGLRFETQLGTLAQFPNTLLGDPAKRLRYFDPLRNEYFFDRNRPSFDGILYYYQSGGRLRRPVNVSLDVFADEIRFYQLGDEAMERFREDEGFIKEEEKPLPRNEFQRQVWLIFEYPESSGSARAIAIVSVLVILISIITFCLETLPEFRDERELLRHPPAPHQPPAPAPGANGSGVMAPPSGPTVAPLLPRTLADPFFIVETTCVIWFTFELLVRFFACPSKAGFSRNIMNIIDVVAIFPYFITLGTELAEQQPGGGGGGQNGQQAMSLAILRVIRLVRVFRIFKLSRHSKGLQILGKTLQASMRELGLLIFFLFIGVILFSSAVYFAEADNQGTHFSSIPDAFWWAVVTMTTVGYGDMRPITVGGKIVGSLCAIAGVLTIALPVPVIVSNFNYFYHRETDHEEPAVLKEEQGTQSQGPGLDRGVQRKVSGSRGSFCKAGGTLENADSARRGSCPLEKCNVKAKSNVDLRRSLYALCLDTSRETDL

| Structure (SMILES) | solubility [1] [µg/mL] | solubility ([1]; 24 °C, saline or isotonic) [µg/mL] | solubility ([1]; 24 °C, water) [µg/mL] | decrease of hKv1.5 current [2] [%] | decrease of hKv4.3 current [3] [%] | decrease of IK.ACh [4] [%] | inhibition of hERG current (hERG channels) | solubility ([1]; 24 °C, saline or isotonic, in 0.9% NaCl, room temperature (23–25 °C), n = 3, read-out: maximum solubility) [µg/mL] | solubility ([1]; 24 °C, saline or isotonic, in 5% glucose, room temperature (23–25 °C), n = 3, read-out: maximum solubility) [µg/mL] | solubility ([1]; 24 °C, water, in H2O, room temperature (23–25 °C), n = 3, read-out: maximum solubility) [µg/mL] | increase of aqueous solubility vs acacetin ([1]; in 0.9% NaCl) [folds] | increase of aqueous solubility vs acacetin ([1]; in 5% glucose) [folds] | increase of aqueous solubility vs acacetin ([1]; in H2O) [folds] |
| --- | --- | --- | --- | --- | --- | --- | --- | --- | --- | --- | --- | --- | --- |
| COc1ccc(-c2cc(=O)c3c(O)cc(O)cc3o2)cc1 [acacetin] | 0.195 ± 0.0135 (≈ 0.686 µM) | 0.312 ± 0.0121 (≈ 1.1 µM) | 0.0644 ± 0.0109 (≈ 0.227 µM) | 79.7 ± 4.1 | 69.3 ± 5.1 | 66.5 ± 3.1 | ~ 50% |  |  |  |  |  |  |
| COc1ccc(-c2cc(=O)c3c(O)cc(OP(=O)(O)O)cc3o2)cc1 [phosphate ester of acacetin] |  |  |  |  |  |  |  | 4.3 ± 0.1 | 2.7 ± 0.1 | 2.5 ± 0.1 | 21 | 7.6 | 37.8 |
